The solubility is how much of the substance goes into solution per volume.

≈ marks a conversion by molar mass, not a printed value.

Common to all, as to assay type: physicochemical
Data set [1] can be described thus: Solubility in different buffered solutions at 25° C. As to the method:
Solubilities of 1-(6-amino-3,5-difluoropyridin-2-yl)-8-chloro-6-fluoro-1,4-dihydro-7-(3-hydroxyazetidin-1-yl)-4-oxo-3-quinolinecarboxylic acid in different buffered solutions at 25° C. are shown in TABLE 1.

The nature of data set [2]: Solubility in different base solutions at 25° C. (free acid). As to conditions: for solubility: aqueous buffer. As to the method: Solubilities of 1-(6-amino-3,5-difluoropyridin-2-yl)-8-chloro-6-fluoro-1,4-dihydro-7-(3-hydroxyazetidin-1-yl)-4-oxo-3-quinolinecarboxylic acid in different base solutions at 25° C. are shown in TABLE 2.
Data set [3] in a line: Solubility of the trihydrate salt in different base solutions at 25° C. As to the method:
The solubility of D-glucitol, 1-deoxy-1-(methylamino)-, 1-(6-amino-3,5-difluoropyridin-2-yl)-8-chloro-6-fluoro-1,4-dihydro-7-(3-hydroxyazetidin-1-yl)-4-oxo-3-quinolinecarboxylate trihydrate (salt) in different base solutions at 25° C. is shown in TABLE 3.

Setting [4] is: 0.01M meglumine, final pH 9.00, 25° C.
The mark [5] stands for this setting: 0.1M meglumine, final pH 9.83, 25° C.
[6] abbreviates: 1M meglumine, final pH 10.85, 25° C.

As to `Nc1nc(-n2cc(C(=O)O)c(=O)c3cc(F)c(N4CC(O)C4)c(Cl)c32)c(F)cc1F` [1-(6-amino-3,5-difluoropyridin-2-yl)-8-chloro-6-fluoro-1,4-dihydro-7-(3-hydroxyazetidin-1-yl)-4-oxo-3-quinolinecarboxylic acid], the solubility in data set [1] (0.1 HCl (printed 0.1 HC1), simulated gastric fluid, 0.1 HC1, final pH 0.8, 25° C.) was 3.26 µg/mL (≈ 0.0074 mM); in data set [1] (aqueous buffer, 0.1M NaOH, final pH 8.4, 25° C.) it was 3400 µg/mL (≈ 7.71 mM); in data set [1] (aqueous buffer, Phosphate Buffer 8.0, final pH 7.8, 25° C.) it was 651 µg/mL (≈ 1.48 mM); in data set [1] (aqueous buffer, citrate buffer 4.0, final pH 4.2, 25° C.) it was 3.44 µg/mL (≈ 0.0078 mM); in data set [1] (aqueous buffer, citrate buffer 5.0, final pH 5.1, 25° C.), 3.33 µg/mL (≈ 0.00756 mM); in data set [1] (aqueous buffer, glycine buffer 9.0, final pH 8.2, 25° C.), 2490 µg/mL (≈ 5.65 mM). In addition, the solubility in data set [1] (aqueous buffer, phosphate buffer 6.8, final pH 6.8, 25° C.) is 66.8 µg/mL (≈ 0.152 mM); in data set [1] (aqueous buffer, phosphate buffer 7.4, final pH 7.4, 25° C.) it was 283 µg/mL (≈ 0.642 mM); in data set [1] (organic solvent or mixture, ethanol, 25° C.), 867 µg/mL (≈ 1.97 mM); in data set [1] (saline or isotonic, saline, final pH 5.8-5.9, 25° C.) it was 13 µg/mL (≈ 0.0295 mM); in data set [2] (0.5M KOH) it was 24.4 mg/mL (≈ 55.4 mM); in data set [2] (1M L-arginine), 11.2 mg/mL (≈ 25.4 mM). Moreover, the solubility in data set [2] (1M NaOH) amounted to 8.33 mg/mL (≈ 18.9 mM); in data set [2] (1.0M TRIS) it was 5.76 mg/mL (≈ 13.1 mM); in data set [2] (1M ethanolamine), 24.9 mg/mL (≈ 56.5 mM); in data set [2] (1M meglumin), 32.1 mg/mL (≈ 72.8 mM). Also, the “Ksp (M^2)” value in data set [2] (0.5M KOH) is 1.69 × 10^−2 M^2; in data set [2] (1M L-arginine), 4.81 × 10^−4 M^2; in data set [2] (1M NaOH) it was 1.66 × 10^−2 M^2; in data set [2] (1.0M TRIS), 1.619 × 10^−4 M^2; in data set [2] (1M ethanolamine) it was 2.04 × 10^−3 M^2; in data set [2] (1M meglumin) it was 2.81 × 10^−3 M^2. Also, the “Swater” value is recorded as 57.4 mg/mL in data set [2] (0.5M KOH); 9.67 mg/mL in data set [2] (1M L-arginine); 56.8 mg/mL in data set [2] (1M NaOH); 4.8 mg/mL in data set [2] (1.0M TRIS); 19.9 mg/mL in data set [2] (1M ethanolamine); 23.6 mg/mL in data set [2] (1M meglumin).

In the case of `CNC[C@H](O)[C@@H](O)[C@H](O)[C@H](O)CO.Nc1nc(-n2cc(C(=O)O)c(=O)c3cc(F)c(N4CC(O)C4)c(Cl)c32)c(F)cc1F.O.O.O` [D-glucitol, 1-deoxy-1-(methylamino)-, 1-(6-amino-3,5-difluoropyridin-2-yl)-8-chloro-6-fluoro-1,4-dihydro-7-(3-hydroxyazetidin-1-yl)-4-oxo-3-quinolinecarboxylate trihydrate (salt)], the “Ksp (M^2)” value in data set [3] (setting [4]) is 4.71 × 10^−3 M^2; in data set [3] (setting [5]), 4.16 × 10^−3 M^2; in data set [3] (setting [6]) it was 3.34 × 10^−3 M^2; in data set [3] (water, final pH 8.78, 25° C.), 5.00 × 10^−3 M^2. The “solubility” value in data set [3] (setting [4]) is 32.4 mg/mL; in data set [3] (setting [5]) it was 32.2 mg/mL; in data set [3] (setting [6]) it was 30.8 mg/mL; in data set [3] (water, final pH 8.78, 25° C.), 33.9 mg/mL.

The record behind these values is patent publication US10329276B2, “Salt and crystalline forms thereof of a drug” (AbbVie Inc., priority 2004, dated 2019).
